Reference: US8796276B2, “Heterocyclic compounds for the treatment of neurological and psychological disorders” (Alkermes Pharma Ireland Limited, priority 2009, dated 2014)

Tests used:
[1] = test system: D-Amphetamine-induced locomotion; test: Pharmacodynamic study in amphetamine-induced locomotion model; details: D-AMPH 1.5 mg/kg IP
[2] = Pharmacokinetic evaluation of prodrugs in rats following intramuscular injection; assay type: in vivo, Male Sprague-Dawley rats; details: rat, IM injection, plasma drug concentration; dose (mg/kg) and excipients/formulation differ per table line
Experimental: Pharmakokinetic Evaluation of Prodrugs in Rats Following Intramuscular Injection
Male Sprague-Dawley rats (Charles River Laboratories, Wilmington, Mass.) were obtained. Approximately 24 rats were used in each study. Rats were approximately 350-375 g at time of arrival. Rats were housed 2 per cage with ad libitum chow and water. Environmental conditions in the housing room: 64-67° F., 30% to 70% relative humidity, and 12:12-h light:dark cycle. All experiments were approved by the institutional animal care and use committee.
Rats were dosed IM by means of a 25 gauge, ⅝ in. needle with 1 cc syringe 0.3 mL suspension was withdrawn from the vial containing the test compound (see Table E). The […] was injected in the muscles of the hind limb after anesthesia with isoflourane. Blood samples were collected via a lateral tail vein after brief anesthesia with Isoflurane. A 27½ G needle and 1 cc syringe without an anticoagulant was used for the blood collection. Approximately […] of whole blood was collected at each sampling time-point of 6 hours, 24 hours and 2, 5, 7, 9, 12, 14, 21, 28, 35 days after administration. Once collected, whole blood was immediately transferred to tubes containing K2 EDTA, inverted 10-15 times and immediately placed on ice. The tubes were centrifuged for 2 minutes at >14,000 g's (11500 RPMs using Eppendorf Centrifuge 5417C, F45-30-11 rotor) at room temperature to separate plasma. Plasma samples were transferred to labeled plain tubes (MICROTAINER®; MFG# BD5962) and stored frozen at <−70° C.
Drug concentrations in plasma samples were analyzed by liquid chromatography-mass spectroscopy using appropriate parameters for each compound. Half-life, volume of distribution, clearance, maximal concentration, and AUC were calculated by using WinNonlin Version 5.2 software.

[3] = PO oral oil solution, 0.66, 10 and 20 mg/rat
[4] = PO oral oil solution, at the higher dose of 20 mg

SMILES	inhibition of increases in distance traveled caused by D-AMPH [1, 4]	AUC0-T [2]	other results
CCCCCC(=O)OCN1C(=O)CCc2ccc(OCCCCN3CCN(c4cccc(Cl)c4Cl)CC3)cc21 [Compound 4, (7-(4-(4-(2,3-dichlorophenyl)piperazin-1-yl)butoxy)-2-oxo-3,4-dihydroquinolin-1(2H)-yl)methyl hexanoate]			dose dependence of inhibition of distance travelled [1, 3]: did not appear to be dose dependent; inhibition of increases in distance traveled caused by D-AMPH [1, 3]: significantly inhibited
CCCCCCCCCCCC(=O)OCN1C(=O)CCc2ccc(OCCCCN3CCN(c4cccc(Cl)c4Cl)CC3)cc21 [Compound 7, (7-(4-(4-(2,3-dichlorophenyl)piperazin-1-yl)butoxy)-2-oxo-3,4-dihydroquinolin-1(2H)-yl)methyl dodecanoate]	significantly inhibit		
CCCCCCCCCCCCCC(=O)OCN1C(=O)CCc2ccc(OCCCCN3CCN(c4cccc(Cl)c4Cl)CC3)cc21 [Compound 8, (7-(4-(4-(2,3-dichlorophenyl)piperazin-1-yl)butoxy)-2-oxo-3,4-dihydroquinolin-1(2H)-yl)methyl tetradecanoate]		666.1 ng·days/mL	AUC0-14 [2]: 580.3 ng·days/mL
CNC(=O)OCN1C(=O)CCc2ccc(OCCCCN3CCN(c4cccc(Cl)c4Cl)CC3)cc21 [Compound 47, (7-(4-(4-(2,3-dichlorophenyl)piperazin-1-yl)butoxy)-2-oxo-3,4-dihydroquinolin-1(2H)-yl)methyl methylcarbamate]	significantly inhibit		
CCOC(=O)OCN1C(=O)CCc2ccc(OCCCCN3CCN(c4cccc(Cl)c4Cl)CC3)cc21 [Compound 79, (7-(4-(4-(2,3-dichlorophenyl)piperazin-1-yl)butoxy)-2-oxo-3,4-dihydroquinolin-1(2H)-yl)methyl ethyl carbonate]		940 ng·days/mL	
